This passage reports IC50 results from US9163021B2, “Pyrrolo[3,2-c]pyridine tropomyosin-related kinase inhibitors” (Pfizer Limited, priority 2012, dated 2015).

The IC50 is the point on the concentration scale where inhibition reaches its midpoint. A high value points to weaker potency in that assay.

In the test the target is TRKA (Homo sapiens (Human), UniProt P04629). The test is described as follows: Isolated TRK enzyme assay (HTRF KinEASE-TK), PV3144 TrkA enzyme assay. To be noted: arithmetic mean where more than one reading. The test is classed as biochemical. Put shortly: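 Kinase (recombinant His-TrkA cytoplasmic domain, ATP-preactivated 20 min) met compound 20 min, then biotinylated TK substrate (1 µM final) with Mg2+/DTT buffer; HTRF detection.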
TRKA, sequence (P04629 441-796): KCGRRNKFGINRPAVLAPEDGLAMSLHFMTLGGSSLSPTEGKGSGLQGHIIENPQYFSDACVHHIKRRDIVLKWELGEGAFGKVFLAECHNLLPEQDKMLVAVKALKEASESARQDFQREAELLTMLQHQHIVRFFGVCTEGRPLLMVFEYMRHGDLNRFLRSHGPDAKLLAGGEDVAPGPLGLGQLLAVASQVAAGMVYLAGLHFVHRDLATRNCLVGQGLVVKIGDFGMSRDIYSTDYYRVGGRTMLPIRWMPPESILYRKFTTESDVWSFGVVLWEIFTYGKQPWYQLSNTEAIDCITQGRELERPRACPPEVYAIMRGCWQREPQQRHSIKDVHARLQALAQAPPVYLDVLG
In general terms: TR-FRET usually uses a lanthanide donor and a delayed reading to cut background.
`CC(C)n1cc(C(=O)c2cc(NC(=O)Cn3cc(C(F)(F)F)nn3)ccn2)c2cnccc21` [Example 53, N-(2-{[1-(propan-2-yl)-1H-pyrrolo[3,2-c]pyridin-3-yl]carbonyl}pyridin-4-yl)-2-[4-(trifluoromethyl)-1H-1,2,3-triazol-1-yl]acetamide] came in with an IC50 of 110 nM.

The compound `Cc1cc(C(C)C)nn1CC(=O)Nc1cncc(C(=O)c2cn(C(C)C)c3ccncc23)c1` [Example 120, 2-(5-methyl-3-(propan-2-yl)-1H-pyrazol-1-yl]-N-(5-{[1-(propan-2-yl)-1H-pyrrolo[3,2-c]pyridin-3-yl]carbonyl}pyridin-3-yl)acetamide] returned an IC50 of 39.5 nM.

The compound `CC(C)(CO)n1cc(C(=O)c2cncc(NC(=O)Cc3ccc(C(F)(F)F)cc3)c2)c2cnccc21` [Example 33, N-(5-{[1-(1-hydroxy-2-methylpropan-2-yl)-1H-pyrrolo[3,2-c]pyridin-3-yl]carbonyl}pyridin-3-yl)-2-[4-(trifluoromethyl)phenyl]acetamide] displayed an IC50 of 3.11 nM.

Turning to `CC(CO)n1cc(C(=O)c2cncc(NC(=O)Cn3cc(C(F)(F)F)cn3)c2)c2cncc(F)c21` (single isomer, unassigned) [Example 219, N-(5-{[7-fluoro-1-(1-hydroxypropan-2-yl)-1H-pyrrolo[3,2-c]pyridin-3-yl]carbonyl}pyridin-3-yl)-2-[4-(trifluoromethyl)-1H-pyrazol-1-yl]acetamide], the IC50 is 15.2 nM.

Compound `Cc1nc(CC(=O)Nc2cc(C(=O)c3cn(C(C)C)c4ccncc34)ccn2)c(C)s1` [Example 162, 2-(2,5-dimethyl-1,3-thiazol-4-yl)-N-(4-{[1-(propan-2-yl)-1H-pyrrolo[3,2-c]pyridin-3-yl]carbonyl}pyridin-2-yl)acetamide] showed an IC50 of 56 nM.

As to `COc1ncc(C(=O)c2cn(C(C)C)c3ccncc23)cc1NC(=O)Cc1ccc(C#N)cc1` [Example 47, 2-(4-cyanophenyl)-N-(2-methoxy-5-{[1-(propan-2-yl)-1H-pyrrolo[3,2-c]pyridin-3-yl]carbonyl}pyridin-3-yl)acetamide], half-maximal inhibition (IC50) was put at 187 nM.

As for `CC(CO)n1cc(C(=O)c2cc(NC(=O)Cc3ccc(C(F)(F)F)cc3)ccn2)c2cnccc21` (centres unmarked) [Example 230, N-(2-{[1-(1-hydroxypropan-2-yl)-1H-pyrrolo[3,2-c]pyridin-3-yl]carbonyl}pyridin-4-yl)-2-[4-(trifluoromethyl)phenyl]acetamide], the IC50 was 18.1 nM.

In the case of `Cc1cc(C(C)C)nn1CC(=O)Nc1cc(C(=O)c2cn(C(C)C)c3ccncc23)ccn1` [Example 113, 2-[5-methyl-3-(propan-2-yl)-1H-pyrazol-1-yl]-N-(4-{[1-(propan-2-yl)-1H-pyrrolo[3,2-c]pyridin-3-yl]carbonyl}pyridin-2-yl)acetamide], inhibition was half-maximal at 20.4 nM (IC50).

`CC(CO)n1cc(C(=O)c2cncc(NC(=O)Cn3ccc(C(F)(F)F)n3)c2)c2cncc(F)c21` (single isomer, unassigned) [Example 208, N-(5-{[7-fluoro-1-(1-hydroxypropan-2-yl)-1H-pyrrolo[3,2-c]pyridin-3-yl]carbonyl}pyridin-3-yl)-2-[3-(trifluoromethyl)-1H-pyrazol-1-yl]acetamide] came in with an IC50 of 29.7 nM.

For `CC(C)n1cc(C(=O)c2cncc(NC(=O)Cc3cnccn3)c2)c2cnccc21` [Example 133, N-(5-{[1-(propan-2-yl)-1H-pyrrolo[3,2-c]pyridin-3-yl]carbonyl}pyridin-3-yl)-2-(pyrazin-2-yl)acetamide], inhibition was half-maximal at 4340 nM (IC50).

For `CC(C)n1cc(C(=O)c2cc(NC(=O)Cc3ccc(C#N)cc3)ccn2)c2cnccc21` [Example 54, 2-(4-cyanophenyl)-N-(2-{[1-(propan-2-yl)-1H-pyrrolo[3,2-c]pyridin-3-yl]carbonyl}pyridin-4-yl)acetamide], the IC50 was determined as 176 nM.

In the case of `CC(C)c1ccnn1CC(=O)Nc1cc(C(=O)c2cn(CCO)c3ccncc23)ccn1` [Example 147, N-(4-{[1-(2-hydroxyethyl)-1H-pyrrolo[3,2-c]pyridin-3-yl]carbonyl}pyridin-2-yl)-2-[5-(propan-2-yl)-1H-pyrazol-1-yl]acetamide], the IC50 worked out at 4310 nM.

For the compound `CC(C)n1cc(C(=O)c2cc(NC(=O)Cn3cc(C(F)(F)F)nn3)ccn2)c2cncc(F)c21` [Example 83, N-(2-{[7-fluoro-1-(propan-2-yl)-1H-pyrrolo[3,2-c]pyridin-3-yl]carbonyl}pyridin-4-yl)-2[4-(trifluoromethyl)-1H-1,2,3-triazol-1-yl]acetamide], the midpoint of inhibition, the IC50, lay at 344 nM.

For `CC(CO)n1cc(C(=O)c2cncc(NC(=O)Cn3cc(C4CC4)nn3)c2)c2cnccc21` (single isomer, unassigned) [Example 76, 2-(4-cyclopropyl-1H-1,2,3-triazol-1-yl)-N-(5-{[1-(1-hydroxypropan-2-yl)-1H-pyrrolo[3,2-c]pyridin-3-yl]carbonyl}pyridin-3-yl)acetamide], the IC50 was 121 nM.

The compound `CC(C)c1cn(CC(=O)Nc2cc(C(=O)c3cn(C4COC4)c4ccncc34)ccn2)nn1` [Example 199, N-(4-{[1-(oxetan-3-yl)-1H-pyrrolo[3,2-c]pyridin-3-yl]carbonyl}pyridin-2-yl)-2-[4-(propan-2-yl)-1H-1,2,3-triazol-1-yl]acetamide] came in with an IC50 of 186 nM.

In turn, `CC(C)(CO)n1cc(C(=O)c2cncc(NC(=O)Cn3cc(C4CC4)nn3)c2)c2cncc(F)c21` [Example 240, 2-(4-cyclopropyl-1H-1,2,3-triazol-1-yl)-N-(5-{[7-fluoro-1-(1-hydroxy-2-methylpropan-2-yl)-1H-pyrrolo[3,2-c]pyridin-3-yl]carbonyl}pyridin-3-yl)acetamide] came in with an IC50 of 24 nM.

For the compound `CC(C)n1cc(C(=O)c2ccnc(NC(=O)Cc3nc(C(C)(C)C)nn3C)c2)c2cnccc21` [Example 171, 2(3-tert-butyl-1-methyl-1H-1,2,4-triazol-5-yl)-N-(4-{[1-(propan-2-yl)-1H-pyrrolo[3,2-c]pyridin-3-yl]carbonyl}pyridin-2-yl)acetamide], 36.1 nM corresponded to half-maximal inhibition (IC50).

For `CC(C)n1cc(C(=O)c2cncc(NC(=O)Cn3cc(C4CC4)cn3)c2)c2cncc(F)c21` [Example 91, 2-(4-cyclopropyl-1H-pyrazol-1-yl)-N-(5-{[7-fluoro-1-(propan-2-yl)-1H-pyrrolo[3,2-c]pyridin-3-yl]carbonyl}pyridin-3-yl)acetamide], the IC50 stood at 15 nM.

In the case of `CC(C)n1cc(C(=O)c2ccnc(NC(=O)Cn3cc(Cl)cn3)c2)c2cnccc21` [Example 99, 2-(4-chloro-1H-pyrazol-1-yl)-N-(4-{[1-(propan-2-yl)-1H-pyrrolo[3,2-c]pyridin-3-yl]carbonyl}pyridin-2-yl)acetamide], half-maximal inhibition (IC50) was put at 42.9 nM.

`Cc1cc(C(F)(F)F)nn1CC(=O)Nc1cncc(C(=O)c2cn(C(C)(C)CO)c3c(F)cncc23)c1` [Example 1, N-{5-[7-Fluoro-1-(2-hydroxy-1,1-dimethyl-ethyl)-1H-pyrrolo[3,2-c]pyridine-3-carbonyl]-pyridin-3-yl}-2-(5-methyl-3-trifluoromethyl-pyrazol-1-yl)-acetamide] registered an IC50 of 6.32 nM.

`Cc1noc(C)c1CC(=O)Nc1cc(C(=O)c2cn(C(C)C)c3ccncc23)ccn1` [Example 160, 2-(3,5-dimethyl-1,2-oxazol-4-yl)-N-(4-{[1-(propan-2-yl)-1H-pyrrolo[3,2-c]pyridin-3-yl]carbonyl}pyridin-2-yl)acetamide] displayed an IC50 of 8990 nM.

Turning to `CC(CO)n1cc(C(=O)c2cncc(NC(=O)Cn3cc(C(F)(F)F)cn3)c2)c2cncc(F)c21` (single isomer, unassigned) [Example 227, N-(5-{[7-fluoro-1-(1-hydroxypropan-2-yl)-1H-pyrrolo[3,2-c]pyridin-3-yl]carbonyl}pyridin-3-yl)-2-[4-(trifluoromethyl)-1H-pyrazol-1-yl]acetamide], half-maximal inhibition (IC50) was put at 24.3 nM.

`CC(CO)n1cc(C(=O)c2cncc(NC(=O)Cn3ccc(C(F)(F)F)n3)c2)c2cnccc21` (centres unmarked) [Example 60, N-(5-{[1-(1-hydroxypropan-2-yl)-1H-pyrrolo[3,2-c]pyridin-3-yl]carbonyl}pyridin-3-yl)-2-[3-(trifluoromethyl)-1H-pyrazol-1-yl]acetamide] displayed an IC50 of 44.7 nM.

Compound `CC(C)n1ncc(CC(=O)Nc2cc(C(=O)c3cn(CCO)c4ccncc34)ccn2)c1C(F)(F)F` [Example 157, N-(4-{[1-(2-hydroxyethyl)-1H-pyrrolo[3,2-c]pyridin-3-yl]carbonyl}pyridin-2-yl)-2-[1-(propan-2-yl)-5-(trifluoromethyl)-1H-pyrazol-4-yl]acetamide] returned an IC50 of 420 nM.

Consider `CC(C)n1cc(C(=O)c2cc(NC(=O)Cc3ccc(Cl)cn3)ccn2)c2cnccc21` [Example 55, 2-(5-chloropyridin-2-yl)-N-(2-{[1-(propan-2-yl)-1H-pyrrolo[3,2-c]pyridin-3-yl]carbonyl}pyridin-4-yl)acetamide], for which the IC50 stood at 73.8 nM.

With `CC(C)(O)Cc1cccc(CC(=O)Nc2cc(C(=O)c3cn(CCO)c4ccncc34)ccn2)c1` [Example 151, N-(4-{[1-(2-hydroxyethyl)-1H-pyrrolo[3,2-c]pyridin-3-yl]carbonyl}pyridin-2-yl)-2-[3-(2-hydroxy-2-methylpropyl)phenyl]acetamide], the midpoint of inhibition, the IC50, lay at 408 nM.

The compound `CC(CO)n1cc(C(=O)c2cncc(NC(=O)Cc3ccc(Cl)cn3)c2)c2cncc(F)c21` (single isomer, unassigned) [Example 225, 2-(5-chloropyridin-2-yl)-N-(5-{[7-fluoro-1-(1-hydroxypropan-2-yl)-1H-pyrrolo[3,2-c]pyridin-3-yl]carbonyl}pyridin-3-yl)acetamide] yielded an IC50 of 46.3 nM.

As for “N-(4-{[1-(propan-2-yl)-1H-pyrrolo[3,2-c]pyridin-3-yl]carbonyl}pyridin-2-yl)-2-[4-(trifluoromethoxy)phenyl]acetamide [Example 168]”, 14.7 nM corresponded to half-maximal inhibition (IC50).

On to `CC(C)n1cc(C(=O)c2cncc(NC(=O)Cn3cccn3)c2)c2cnccc21` [Example 122, N-(5-{[1-(propan-2-yl)-1H-pyrrolo[3,2-c]pyridin-3-yl]carbonyl}pyridin-3-yl)-2(1H-pyrazol-1-yl)acetamide], for which the midpoint of inhibition, the IC50, lay at 1220 nM.
